According to article PMC12735872, “Development of ^18F/^11C-Labeled Pyrrolo-Pyridine/Pyrimidine LRRK2 Selective PET Radioligands” (Pharmaceuticals, 2025):
Where two headings read alike, the source gives them in different places.

Experiments:
LRRK2 wild-type (WT) = LRRK2 wild-type (WT) (Homo sapiens, UniProt Q5S007); assay: LRRK2 wild-type Lanthascreen; type: biochemical
LRRK2 G2019S = LRRK2 G2019S (Homo sapiens, UniProt Q5S007, G2019S); assay: LRRK2 G2019S Lanthascreen; type: biochemical
MDR1 (P-gp) = assay: MDR1-MDCK permeability and efflux ratio; type: in vitro ADME; settings: dog, assay described in ref. 17; for Papp A→B: MDCK-MDR1; for efflux ratio: MDR1-MDCK, read-out: B:A/A:B (efflux ratio)
Excerpt: Table 1 LRRK2 wild-type (WT) and G2019S Lanthascreen, MDR1-MDCK permeability (Papp A:B), and efflux ratio (B:A/A:B), free fractions in plasma (fp) and brain homogenate (fb) and PET Multi-Parameter Optimization (MPO) score of Compounds 1, 2, and 3. | column: Papp A:B ^2 (MDR1-MDCK) (cm/s × 10^−6); B:A/A:B ^2

[1] = Free fraction in plasma (fp); type: in vitro ADME; settings: method ref. 18
Excerpt: Table 1 LRRK2 wild-type (WT) and G2019S Lanthascreen, MDR1-MDCK permeability (Papp A:B), and efflux ratio (B:A/A:B), free fractions in plasma (fp) and brain homogenate (fb) and PET Multi-Parameter Optimization (MPO) score of Compounds 1, 2, and 3. | column: fp ^3 (%)

[2] = Free fraction in brain homogenate (fb); type: in vitro ADME; settings: method ref. 18
Excerpt: Table 1 LRRK2 wild-type (WT) and G2019S Lanthascreen, MDR1-MDCK permeability (Papp A:B), and efflux ratio (B:A/A:B), free fractions in plasma (fp) and brain homogenate (fb) and PET Multi-Parameter Optimization (MPO) score of Compounds 1, 2, and 3. | column: fb ^3 (%)

LRRK2 [3] = assay: In vitro autoradiography, NHP brain slices; type: binding; settings: cold compound 10 µM
Procedure: Whole brain hemispheres were sectioned into horizontal slices with a thickness of 100 µm using a Leica cryomacrocut system. The autoradiographic procedures followed the same protocols established in previous studies conducted in our laboratory. The whole-hemisphere sections of 100 micron thickness were incubated for 90 min at room temperature with their corresponding radiotracer (4 MBq/200 mL) in TRIS buffer (pH 7.4) containing sodium chloride (120 mM), potassium chloride (5 mM), calcium chloride (2 mM), and albumin (0.1% w/v). After incubation, sections were washed three times in the same buffer at room temperature for five minutes each, briefly dipped in ice-cold distilled water, dried, and then placed in the phosphor imaging plates. Binding density standards were prepared by serial dilution of the radioligand stock solution in the assay buffer. Readings were taken with the Fujifilm BAS-5000 (Fujifilm, Tokyo, Japan), while quantitative analysis was conducted with the Multi Gauge 3.2 image analysis software (Fujifilm, Tokyo, Japan). For blocking experiments, adjacent brain sections were co-incubated with LuAF66583 (0.1 µM or 10 µM). […] The thickness differed from human tissue (20 µm).

LRRK2 [4] = target: T1, LRRK2 (Homo sapiens, UniProt Q5S007); assay: In vitro autoradiography, human whole-hemisphere brain slices; type: binding; settings: human brain slices; cold compound 10 µM
T1 construct: Human brains without pathological findings were acquired from the National Institute of Forensic Medicine; from tissue; host or cells: human post-mortem control brain, whole-hemisphere sections (100 µm)
T1 sequence (Q5S007 whole entry): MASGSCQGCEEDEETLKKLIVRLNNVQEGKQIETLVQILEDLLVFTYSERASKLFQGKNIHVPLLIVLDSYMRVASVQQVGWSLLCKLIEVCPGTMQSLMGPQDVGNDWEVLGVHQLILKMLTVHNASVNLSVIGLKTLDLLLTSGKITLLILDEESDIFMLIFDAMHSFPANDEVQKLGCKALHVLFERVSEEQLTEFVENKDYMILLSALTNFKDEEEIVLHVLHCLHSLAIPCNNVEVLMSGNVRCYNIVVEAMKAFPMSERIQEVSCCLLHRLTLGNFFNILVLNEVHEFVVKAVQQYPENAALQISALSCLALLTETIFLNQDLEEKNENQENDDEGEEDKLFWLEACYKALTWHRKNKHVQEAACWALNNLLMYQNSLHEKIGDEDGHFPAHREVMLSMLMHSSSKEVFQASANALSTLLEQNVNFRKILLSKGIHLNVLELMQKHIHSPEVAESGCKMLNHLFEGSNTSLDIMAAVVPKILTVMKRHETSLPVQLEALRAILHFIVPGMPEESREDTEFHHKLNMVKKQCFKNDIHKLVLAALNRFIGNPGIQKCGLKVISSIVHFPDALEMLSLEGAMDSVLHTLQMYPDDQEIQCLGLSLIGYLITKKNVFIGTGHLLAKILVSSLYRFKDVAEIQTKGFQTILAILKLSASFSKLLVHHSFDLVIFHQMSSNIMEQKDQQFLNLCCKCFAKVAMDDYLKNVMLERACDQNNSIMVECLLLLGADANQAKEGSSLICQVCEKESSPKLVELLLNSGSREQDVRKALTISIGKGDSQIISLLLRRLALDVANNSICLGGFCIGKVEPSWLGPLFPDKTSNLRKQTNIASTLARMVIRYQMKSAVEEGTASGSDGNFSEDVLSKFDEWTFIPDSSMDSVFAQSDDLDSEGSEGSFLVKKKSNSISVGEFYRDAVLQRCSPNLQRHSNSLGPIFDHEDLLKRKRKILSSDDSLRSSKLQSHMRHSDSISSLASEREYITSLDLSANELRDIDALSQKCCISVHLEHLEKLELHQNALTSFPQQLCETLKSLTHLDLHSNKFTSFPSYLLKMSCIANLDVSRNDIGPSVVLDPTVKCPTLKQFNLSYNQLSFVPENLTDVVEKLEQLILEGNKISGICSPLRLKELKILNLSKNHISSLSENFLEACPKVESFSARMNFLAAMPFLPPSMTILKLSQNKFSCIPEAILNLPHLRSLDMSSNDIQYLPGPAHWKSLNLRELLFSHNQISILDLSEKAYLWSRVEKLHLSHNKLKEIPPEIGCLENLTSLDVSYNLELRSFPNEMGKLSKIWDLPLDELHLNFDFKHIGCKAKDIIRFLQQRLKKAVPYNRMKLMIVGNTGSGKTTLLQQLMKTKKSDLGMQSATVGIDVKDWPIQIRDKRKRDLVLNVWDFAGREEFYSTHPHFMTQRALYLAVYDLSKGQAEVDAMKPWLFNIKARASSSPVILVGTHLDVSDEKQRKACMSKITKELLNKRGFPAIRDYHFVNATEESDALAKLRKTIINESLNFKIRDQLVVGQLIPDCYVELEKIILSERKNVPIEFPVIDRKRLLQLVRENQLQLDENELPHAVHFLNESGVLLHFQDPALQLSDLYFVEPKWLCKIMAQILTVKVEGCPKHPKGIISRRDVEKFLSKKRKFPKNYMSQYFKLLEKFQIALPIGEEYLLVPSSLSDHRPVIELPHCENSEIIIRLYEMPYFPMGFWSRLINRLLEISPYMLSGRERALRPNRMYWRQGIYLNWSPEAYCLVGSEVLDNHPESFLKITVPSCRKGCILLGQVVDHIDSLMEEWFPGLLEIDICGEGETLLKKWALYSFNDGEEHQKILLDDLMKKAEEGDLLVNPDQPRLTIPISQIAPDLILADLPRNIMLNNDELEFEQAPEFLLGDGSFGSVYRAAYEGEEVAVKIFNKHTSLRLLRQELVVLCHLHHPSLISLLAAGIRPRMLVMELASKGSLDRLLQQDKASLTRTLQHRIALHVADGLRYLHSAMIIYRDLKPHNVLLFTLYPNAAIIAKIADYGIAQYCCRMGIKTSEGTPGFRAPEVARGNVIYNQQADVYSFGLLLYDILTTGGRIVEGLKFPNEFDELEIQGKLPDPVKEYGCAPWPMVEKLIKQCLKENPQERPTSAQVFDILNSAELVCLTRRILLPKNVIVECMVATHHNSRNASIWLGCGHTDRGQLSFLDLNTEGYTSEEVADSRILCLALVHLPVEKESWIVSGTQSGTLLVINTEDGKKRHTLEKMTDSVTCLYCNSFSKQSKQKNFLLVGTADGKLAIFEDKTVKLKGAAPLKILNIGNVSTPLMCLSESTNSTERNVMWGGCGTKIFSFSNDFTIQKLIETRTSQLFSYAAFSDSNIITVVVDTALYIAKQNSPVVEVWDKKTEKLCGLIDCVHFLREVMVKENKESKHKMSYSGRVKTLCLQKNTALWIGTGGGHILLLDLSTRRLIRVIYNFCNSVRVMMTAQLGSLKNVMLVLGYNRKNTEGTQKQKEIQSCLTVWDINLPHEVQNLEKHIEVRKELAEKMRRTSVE
Procedure: Human brains without pathological findings were acquired from the National Institute of Forensic Medicine at Karolinska Institutet in Stockholm, Sweden. These brains were obtained during forensic autopsies (designated as control brain) and were processed in a manner like previously described methods. […] The brain was removed, and its tissues were kept in −85 °C until the sectioning process. The whole brain hemispheric slices were subsequently maintained at −25 °C until the commencement of autoradiography procedures. […] The sectioning of the brain and the autoradiography experiments were performed at the Psychiatry section, Department of Neuroscience, Karolinska Institutet, Sweden.
Whole brain hemispheres were sectioned into horizontal slices with a thickness of 100 µm using a Leica cryomacrocut system. The autoradiographic procedures followed the same protocols established in previous studies conducted in our laboratory. The whole-hemisphere sections of 100 micron thickness were incubated for 90 min at room temperature with their corresponding radiotracer (4 MBq/200 mL) in TRIS buffer (pH 7.4) containing sodium chloride (120 mM), potassium chloride (5 mM), calcium chloride (2 mM), and albumin (0.1% w/v). After incubation, sections were washed three times in the same buffer at room temperature for five minutes each, briefly dipped in ice-cold distilled water, dried, and then placed in the phosphor imaging plates. Binding density standards were prepared by serial dilution of the radioligand stock solution in the assay buffer. Readings were taken with the Fujifilm BAS-5000 (Fujifilm, Tokyo, Japan), while quantitative analysis was conducted with the Multi Gauge 3.2 image analysis software (Fujifilm, Tokyo, Japan). For blocking experiments, adjacent brain sections were co-incubated with LuAF66583 (0.1 µM or 10 µM).

Chain of LRRK2 wild-type (WT) (Q5S007 whole entry): as above
Chain of LRRK2 G2019S (Q5S007 whole entry G2019S): as the sequence (Q5S007 whole entry) above, with G2019S counted along it

| Ki (LRRK2 wild-type (WT)) [nM] | Ki (LRRK2 G2019S) [nM] | Papp A→B (MDR1 (P-gp)) [×10⁻⁶ cm/s] | efflux ratio (MDR1 (P-gp)) | fraction unbound [1] | fraction unbound [2] | Blocking of [^18F]1 binding (ARG) (LRRK2 [3]) | Blocking of [^18F]1 binding (ARG) (LRRK2 [4]) | Ki (LRRK2 wild-type (WT); assay described in ref. 16, read-out: LRRK2 Lanthascreen WT cKi) [nM] | Ki (LRRK2 G2019S; assay described in ref. 16, read-out: LRRK2 Lanthascreen G2019S cKi) [nM] | Compound |
| --- | --- | --- | --- | --- | --- | --- | --- | --- | --- | --- |
| 0.14 | 0.28 | 17 | 0.8 | 0.04 | 0.012 | effectively blocked | effectively blocked | – | – | C[C@@H]1CCCN1c1c(C#N)c2c(N)nc(Nc3cnn(C)c3)nc2n1C [Compound 3, (R)-4-amino-7-methyl-2-((1-methyl-1H-pyrazol-4-yl)amino)-6-(2-methylpyrrolidin-1-yl)-7H-pyrrolo[2,3-d]pyrimidine-5-carbonitrile] |
| – | – | 31 | 0.66 | 0.38 | 0.13 | effectively blocked | effectively blocked | 0.7 | 1 | C[C@@H]1C[C@@H](F)CN1c1c(C#N)c2c(N)nccc2n1C [Compound 1, 4-Amino-2-((2R,4R)-4-fluoro-2-methylpyrrolidin-1-yl)-1-methyl-1H-pyrrolo[3,2-c]pyridine-3-carbonitrile] |
